According to PubChem BioAssay AID504680 (Sanford-Burnham Center for Chemical Genomics, 2011):
Active and inactive are the calls of the source.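 Rule for the calls: active = IC50 below 100 µM in the TR-FRET assay, unless also active in the caspase-3 counter assay; inactive = the rest, including compounds also active in caspase-3.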

Each molecule was assayed against Caspase-3 (Homo sapiens) (UniProt P42574) (assay: inhibition of recombinant caspase-3 activity – biochemical, luminescence, Caspase-Glo 3/7, counter-screen for UBC13 polyubiquitin inhibitor project, SAR follow-up (AID 504680)). Details: recombinant caspase-3, Caspase-Glo luminescence, 60 min.
Sequence of Caspase-3 (Homo sapiens) (P42574 whole entry, looked up): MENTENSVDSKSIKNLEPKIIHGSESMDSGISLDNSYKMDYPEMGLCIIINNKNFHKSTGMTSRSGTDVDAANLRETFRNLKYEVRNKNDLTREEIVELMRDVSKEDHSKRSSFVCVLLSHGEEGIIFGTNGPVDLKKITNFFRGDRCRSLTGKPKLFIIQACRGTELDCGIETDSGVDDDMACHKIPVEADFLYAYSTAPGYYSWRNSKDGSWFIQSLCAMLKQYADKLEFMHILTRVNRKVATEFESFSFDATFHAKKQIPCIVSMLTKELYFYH

IC50	Structure (SMILES)
> 100 µM (inactive)	Cc1nc2ccccc2c(=O)n1NC(=O)c1ccc(OC(F)F)cc1
> 100 µM (inactive)	COC(=O)C1=C(NC(=O)CCCCCN2C(=O)c3ccccc3C2=O)SC2CCCC12 (stereo unspecified)
> 100 µM (inactive)	O=C(c1ccco1)N1CCN(C(=O)C2CCN(c3ncnc4c3nc3n4CCCCC3)CC2)CC1
> 100 µM (inactive)	CC(=O)Nc1ccc(OCC(O)CN2CCN(CCN3C(=O)c4cccc5cccc(c45)C3=O)CC2)cc1 (stereo unspecified)
> 100 µM (inactive)	O=C(CCCCCN1C(=O)c2cccc3cccc(c23)C1=O)NCCO
> 100 µM (inactive)	CN(C)CCCN(C(=O)c1ccc(S(=O)(=O)N2CCCC2)cc1)c1nc2ccc(Br)cc2s1
> 100 µM (inactive)	Cc1cc(C)cc(OCCNC(=O)CCCCCN2C(=O)c3ccccc3C2=O)c1
> 100 µM (inactive)	CCCCN(CC)S(=O)(=O)c1ccc(C(=O)N(CCCN(C)C)c2nc3cc(C)cc(C)c3s2)cc1
> 100 µM (inactive)	CCC1CCCCN1CCCNC(=O)C1CCN(c2ncnc3c2nc2n3CCCCC2)CC1 (stereo unspecified)
> 100 µM (inactive)	CCOC(=O)c1c(NC(=O)COc2ccccc2C#N)sc2c1CC(C)(C)NC2(C)C
> 100 µM (inactive)	CCCN1CCN(C(=O)C2CCN(c3ncnc4c3nc3n4CCCCC3)CC2)CC1
> 100 µM (inactive)	O=C1c2cccc3cccc(c23)C(=O)N1CCN1CCN(CC(O)COc2ccc(Cl)cc2)CC1 (stereo unspecified)
> 100 µM (inactive)	N#Cc1ccccc1Cn1c(=O)n(CCCC(=O)NC2CCN(Cc3ccccc3)CC2)c(=O)c2ccccc21
> 100 µM (inactive)	CCOc1cccc2sc(N(CCCN(C)C)C(=O)c3ccc(S(=O)(=O)N(CC)Cc4ccccc4)cc3)nc12
> 100 µM (inactive)	CC1CC(C)CN(C(=O)C2CCN(c3ncnc4c3nc3n4CCCCC3)CC2)C1 (stereo unspecified)
> 100 µM (inactive)	Cc1cccc(C)c1NC(=O)Cn1c(=O)n(CCCC(=O)NC2CCN(Cc3ccccc3)CC2)c(=O)c2ccccc21
> 100 µM (inactive)	Cc1ccc2nc(N(CCCN(C)C)C(=O)c3ccc4c(c3)CCCC4)sc2c1
> 100 µM (inactive)	CN(C)CCCN(C(=O)c1ccc(S(=O)(=O)N2CCc3ccccc3C2)cc1)c1nc2ccc(F)cc2s1
> 100 µM (inactive)	O=C1c2cccc3cccc(c23)C(=O)N1CC1CCN(CC(O)COCc2ccc3c(c2)OCO3)CC1 (stereo unspecified)
> 100 µM (inactive)	Cc1ccc(OCC(O)CN2CCN(CCN3C(=O)c4cccc5cccc(c45)C3=O)CC2)c(C)c1 (stereo unspecified)
> 100 µM (inactive)	COc1ccc(C)c2sc(N(CCCN(C)C)C(=O)c3ccc(S(=O)(=O)N(C)C)cc3)nc12
> 100 µM (inactive)	O=C(C1CCN(c2ncnc3c2nc2n3CCCCC2)CC1)N1CCC(Cc2ccccc2)CC1
> 100 µM (inactive)	CCN(Cc1ccccc1)S(=O)(=O)c1ccc(C(=O)N(CCCN(C)C)c2nc3cc4c(cc3s2)OCO4)cc1

IC50	Structure (SMILES)
> 100 µM (inactive)	Cc1cc(NS(=O)(=O)c2ccc(NC(=O)CCCCCN3C(=O)c4ccccc4C3=O)cc2)nc(C)n1
> 100 µM (inactive)	O=C(NCC1CCN(Cc2ccccc2F)CC1)C1CCCN(c2ncnc3c2nc2n3CCCCC2)C1 (stereo unspecified)
> 100 µM (inactive)	CN(C)CCCN(C(=O)c1ccc(S(=O)(=O)N(C)Cc2ccccc2)cc1)c1nc2cc3c(cc2s1)OCO3
> 100 µM (inactive)	Cc1cc(C)c2sc(N(CCCN(C)C)C(=O)c3ccc(S(=O)(=O)N4CCc5ccccc5C4)cc3)nc2c1
> 100 µM (inactive)	CC(=O)c1ccc(OCC(O)CN2CCN(CCN3C(=O)c4cccc5cccc(c45)C3=O)CC2)cc1 (stereo unspecified)
> 100 µM (inactive)	O=C(CCCCCN1C(=O)c2ccccc2C1=O)Nc1nc(C2CC2)cs1
> 100 µM (inactive)	COc1ccc(OC)c2sc(N(CCCN(C)C)C(=O)c3ccc(S(=O)(=O)N4CCc5ccccc5C4)cc3)nc12
> 100 µM (inactive)	O=C(NCCCN1CCN(c2ccccc2)CC1)C1CCCN(c2ncnc3c2nc2n3CCCCC2)C1 (stereo unspecified)
> 100 µM (inactive)	CN1CCN(CCCNC(=O)c2ccc(/C=C3\Oc4ccccc4N(Cc4ccc(Cl)cc4)C3=O)cc2)CC1
> 100 µM (inactive)	O=C(CCCn1c(=O)c2ccccc2n(Cc2cccc(F)c2)c1=O)NC1CCN(Cc2ccccc2)CC1
> 100 µM (inactive)	O=C1c2cccc3cccc(c23)C(=O)N1CCN1CCN(CC(O)COc2ccc3c(c2)OCO3)CC1 (stereo unspecified)
> 100 µM (inactive)	O=C(C1CCN(c2ncnc3c2nc2n3CCCCC2)CC1)N1CCN(c2ccccc2)CC1
> 100 µM (inactive)	Cc1ccc(C)c(CN2CCC(CNC(=O)C3CCCN(c4ncnc5c4nc4n5CCCCC4)C3)CC2)c1 (stereo unspecified)
> 100 µM (inactive)	COc1cccc(OCC(O)CN2CCN(CCN3C(=O)c4cccc5cccc(c45)C3=O)CC2)c1 (stereo unspecified)
> 100 µM (inactive)	C=CCc1ccccc1OCC(O)CN1CCN(CCN2C(=O)c3cccc4cccc(c34)C2=O)CC1 (stereo unspecified)
> 100 µM (inactive)	CCc1ccc2nc(N(CCCN(C)C)C(=O)c3ccc(S(=O)(=O)N4CCc5ccccc5C4)cc3)sc2c1
> 100 µM (inactive)	Cc1ccc(-c2oc3ncnc(N)c3c2-c2ccc(C)cc2)cc1
> 100 µM (inactive)	O=C1c2cccc3cccc(c23)C(=O)N1CC1CCN(CC(O)COc2ccc3ccccc3c2)CC1 (stereo unspecified)
> 100 µM (inactive)	Cc1c(NC(=O)CCCN2C(=O)c3cccc4cccc(c34)C2=O)c(=O)n(-c2ccccc2)n1C
> 100 µM (inactive)	Cc1ccc(C)c(OCC(O)CN2CCN(CCN3C(=O)c4cccc5cccc(c45)C3=O)CC2)c1 (stereo unspecified)
> 100 µM (inactive)	CNCc1cc(Br)c(OCC(=O)Nc2ccccc2OC)c(OC)c1
> 100 µM (inactive)	COc1ccc(NC(=O)CCCCCN2C(=O)c3cccc([N+](=O)[O-])c3C2=O)cc1
> 100 µM (inactive)	COc1ccc(-c2oc3ncnc(N)c3c2-c2ccccc2)cc1
